Assay results as given in patent US8586973B2, “Host material for light-emitting diodes” (Solvay SA, priority 2008, dated 2013).

Test: Solubility tests in organic solvents
Format: physicochemical
Settings: 20° C.; for Solubility S in chlorobenzene / Solubility S in toluene: 1 ml solvent, magnetic stirring
Protocol: The solubility tests were carried out at 20° C. by adding 1 ml of solvent to the suitable amount of compound powder in a sampling vial and under magnetic stirring.

In the case of `CC(C)[Si](c1ccc2c(c1)c1cc([Si](C(C)C)(C(C)C)C(C)C)ccc1n2-c1ccc(C2(c3ccc(-n4c5ccc([Si](C(C)C)(C(C)C)C(C)C)cc5c5cc([Si](C(C)C)(C(C)C)C(C)C)ccc54)cc3)c3ccccc3-c3ccccc32)cc1)(C(C)C)C(C)C` [Compound IV, 9,9-Bis-(4-phenyl-3,6,3″,6″-tetrakis-triisopropylsilanyl-9′H-carbazole)-9H-fluorene], the “Solubility S in chlorobenzene (molar)” value is reported as greater than 42 mM, the “Solubility S in chlorobenzene” value is reported as greater than 54 mg/mL and the “Solubility S in toluene (molar)” value is reported as greater than 31 mM. The “Solubility S in toluene” value was greater than 39 mg/mL.

For `CC(C)[Si](c1ccc2c(c1)c1ccccc1n2-c1ccc(C2(c3ccc(-n4c5ccccc5c5cc([Si](C(C)C)(C(C)C)C(C)C)ccc54)cc3)c3ccccc3-c3ccccc32)cc1)(C(C)C)C(C)C` [Compound IX, 9,9-Bis-[4-(3-Triisopropylsilylcarbazol)-phenyl]-fluorene], the “Solubility S in chlorobenzene (molar)” value was greater than 59 mM, the “Solubility S in chlorobenzene” value was greater than 57 mg/mL and the “Solubility S in toluene (molar)” value was greater than 49 mM. For the same compound, the “Solubility S in toluene” value was greater than 47 mg/mL.

With `COc1ccc(-n2c3ccc(-n4c5ccc([Si](C(C)C)(C(C)C)C(C)C)cc5c5cc([Si](C(C)C)(C(C)C)C(C)C)ccc54)cc3c3cc(-n4c5ccc([Si](C(C)C)(C(C)C)C(C)C)cc5c5cc([Si](C(C)C)(C(C)C)C(C)C)ccc54)ccc32)cc1` [Compound VI, 9′-(4-Methoxy-phenyl)-3,6,3″,6″-tetrakis-triisopropylsilanyl-9′-[9,3′;6′,9″]tercarbazole] the “Solubility S in chlorobenzene (molar)” value was greater than 45 mM and the “Solubility S in chlorobenzene” value was greater than 55 mg/mL.

For `COc1ccc(-n2c3ccc(-n4c5ccccc5c5cc([Si](C(C)C)(C(C)C)C(C)C)ccc54)cc3c3cc(-n4c5ccccc5c5cc([Si](C(C)C)(C(C)C)C(C)C)ccc54)ccc32)cc1` [Compound VII, 9-N-(4-Methoxy-phenyl)-3,6-Bis-[(3-Triisopropylsilylcarbazolyl)]carbazole], the “Solubility S in chlorobenzene (molar)” value was greater than 62 mM and the “Solubility S in chlorobenzene” value was greater than 56 mg/mL.

For `CC(C)[Si](c1ccc2c(c1)c1ccccc1n2-c1ccc2c(c1)c1cc(-n3c4ccccc4c4cc([Si](C(C)C)(C(C)C)C(C)C)ccc43)ccc1n2-c1ccc(F)cc1)(C(C)C)C(C)C` [Compound VIII, 9-N-(4-Fluoro-phenyl)-3,6-Bis-[(3-Triisopropylsilylcarbazolyl)]carbazole], the “Solubility S in chlorobenzene (molar)” value was greater than 57 mM and the “Solubility S in chlorobenzene” value was greater than 51 mg/mL.
